The test system of one assay is A549 cells. Description: Clonogenic assay, combinatorial treatment with γ-irradiation in A549 cells. Type of assay: cell-based, human. How it is done:
Further, clonogenic assay is considered as the gold standard method for evaluating the anticancer activity of any compound and is also a good indicator of the in vivo efficacy of any anticancer compound. Therefore, the therapeutic index of DSePA and D-DSePA in A549/WI-38 cells was also validated by employing the clonogenic assay. For this, A549/WI-38 cells were treated with the varying concentrations (0.1-2 μM)/(1-500 μM) of DSePA/D-DSePA for seven days and the survival fraction was calculated by counting the number of surviving clones (FIG. 11A). The plot of survival fraction verses the concentration of DScPA/D-DSCPA was used to estimate the IC50 of above compounds to inhibit the growth of A549/WI-38 cells. […] This clearly confirmed that deuteration of DScPA reduced its toxicity in normal cells without compromising its efficacy in cancer cells. Since anticancer agents are intended to be used in combination with radiation, DSePA/D-DSePA at a treatment concentration of 0.5 μM (dose close to IC50 as determined by clonogenic assay) was combined with varying absorbed doses (2-8 Gy) of γ-irradiation and the effect of combinatorial treatment on the viability of A549 cells was determined by clonogenic assay (FIG. 12A & 12B). For this, A549 cells exposed to the varying absorbed doses (2-8 Gy) of γ-radiation were immediately treated with DScPA/D-DScPA and cultured for seven days prior to clonogenic assay. […] The D10 value of the combinatorial treatment involving DScPA estimated was 4.5 Gy (FIG. 12B). Similarly, D10 value of the combinatorial treatment involving D-DSePA estimated was 4 Gy. From these values, the dose modification factor (DMF or the ratio of the D10 of combinatorial treatment to that of D10 of radiation) of DScPA and D-DScPA estimated was 0.87±0.01 and 0.83±0.02 respectively. […] While the objective of radiotherapy is to achieve tumor control, it is also known to cause normal tissue toxicity. Previously, DSePA has been reported to protect normal cells from lethal effects of γ-radiation. Thus radio-protective activity of D-DSePA was compared with DScPA in terms of their abilities to protect non-cancerous lung fibroblast (WI-38) cells against γ-irradiation induced cell death. For this, WI-38 cells were pretreated with DSePA/D-DScPA for 24 h at an identical concentration of 0.5 μM (close to IC50 required to inhibit growth of A549 lung cancer cells by clonogenic assay) and then exposed to varying doses (2-12 Gy) of γ-irradiation. The survival of cells against radiation exposure was estimated by clonogenic assay and the dose response curve was prepared in the presence and absence of drug (DSePA/D-DScPA) (FIG. 12C & 12D). By using this dose response curve, the dose modification factor (DMF or the ratio of the D10 of radiation plus drug and D10 of radiation alone) of DSePA and D-DSePA estimated was 1.12±0.03 and 1.16±0.05 respectively.
(§1) Clonogenic assay—Clonogenic assay was performed according to the method reported previously. […] After 7 days, colonies were fixed with absolute methanol for 5 min, stained with 0.5% crystal violet for 5 min, washed with distilled water to remove excess stain and counted manually under a stereo microscope. […] The plating efficiency and the survival fraction under irradiated and drug treated conditions were calculated using following formulae: […]
(§2) The plating efficiency of A549 and WI38 cells was calculated by seeding ˜300 and ˜500 cells respectively. […]

The subject of assay [1] is non-cancerous human lung fibroblast cells (WI-38 & WI-26 VA4). The experiment in a line: MTT assay, non-cancerous human lung fibroblast cells (summary statement). Type of assay: cell-based. To be noted: WI-38 & WI-26 VA4 cells. The source says: 3,3′-Disclenodipropionic acid-D8 (D-DSePA, chemical structure shown in FIG. 1) was synthesized by reacting freshly prepared sodium selenide (Na2Se2) and 3-bromopropionic acid-D4 in D2O solvent with 42% yield. The synthesized D-DSePA was purified and characterized by NMR spectroscopy and mass spectrometry. The molecular structure of D-DSePA has been established by single-crystal X-ray diffraction analysis. The treatment of D-DSePA and un-deuterated DSePA inhibited the growth of human NSCLC cells such as A549, H1975 and H3122 with half maximum concentration (IC50) in the range of 5-50 μM by MTT assay. […] Finally, at identical treatment concentration, D-DSePA offered better radioprotection to non-cancerous WI38 cells with a dose modification factor (DMF) of 1.16±0.05 as compared to un-deuterated DScPA with DMF of 1.12±0.03.
MTT Assay—To evaluate the anti-proliferative effect of D-DScPA and DScPA, Cells (˜5×10^3) suspended in 100 μl of complete culture medium were seeded in each well of 96 well plates. […] The percentage (%) cytotoxicity was calculated from the decrease in absorbance at 570 nm of treated groups as compared to that of control group. […] The therapeutic index was calculated by normalizing the IC50 concentration of D-DSePA/DSePA in non-cancerous cells to that in cancerous cells.

The subject of the next assay is WI-38 cells. The experiment in a line: Clonogenic assay, radioprotection of WI-38 cells against γ-irradiation. Type of assay: cell-based, human. To be noted: γ-irradiation 2-12 Gy. As to the method: Further, clonogenic assay is considered as the gold standard method for evaluating the anticancer activity of any compound and is also a good indicator of the in vivo efficacy of any anticancer compound. Therefore, the therapeutic index of DSePA and D-DSePA in A549/WI-38 cells was also validated by employing the clonogenic assay. For this, A549/WI-38 cells were treated with the varying concentrations (0.1-2 μM)/(1-500 μM) of DSePA/D-DSePA for seven days and the survival fraction was calculated by counting the number of surviving clones (FIG. 11A). The plot of survival fraction verses the concentration of DScPA/D-DSCPA was used to estimate the IC50 of above compounds to inhibit the growth of A549/WI-38 cells. […] This clearly confirmed that deuteration of DScPA reduced its toxicity in normal cells without compromising its efficacy in cancer cells. Since anticancer agents are intended to be used in combination with radiation, DSePA/D-DSePA at a treatment concentration of 0.5 μM (dose close to IC50 as determined by clonogenic assay) was combined with varying absorbed doses (2-8 Gy) of γ-irradiation and the effect of combinatorial treatment on the viability of A549 cells was determined by clonogenic assay (FIG. 12A & 12B). For this, A549 cells exposed to the varying absorbed doses (2-8 Gy) of γ-radiation were immediately treated with DScPA/D-DScPA and cultured for seven days prior to clonogenic assay. […] The D10 value of the combinatorial treatment involving DScPA estimated was 4.5 Gy (FIG. 12B). […]
as §1, §2

Assay [2] deals with lung cancer cell lines (A549, H1975 and H3122) versus normal lung cells (WI-38 and WI-26 VA4). The experiment in a line: Therapeutic index by MTT assay, lung cancer cell lines versus normal lung cells. In kind it is cell-based, human. To be noted: for Therapeutic Index (IC50 in normal cell / IC50 in cancer cells): 48 h post-treatment. As to the method: Therefore, D-DSePA was compared with un-deuterated DSePA for its anticancer activity in A549, H1975 and H3122 cell lines which are representative of NSCLC. For this, above cells were treated with the varying concentrations (0.1-100 μM) of DSePA/D-DSePA for 48 h and the cell viability was determined by MTT assay (FIG. 9A-C). The plot of percent (%) cytotoxicity (100-% viability) versus the concentration of DSePA/D-DSePA was used to estimate the half maximum concentration (IC50) of above compounds to inhibit the proliferation of cells. […] Similarly, the toxicity of DSePA/D-DSePA was studied in non-cancerous lung fibroblast cells, WI-38 and WI-26 VA4 in the concentration range of 0.1 to 1000 μM at 48 h post treatment by MTT assay (FIG. 9D and 9E). […] Employing these values, the therapeutic index (IC50 in normal lung cell/IC50 in lung cancer cell) of DSePA and D-DSePA in different pairs of normal versus cancerous cells (viz., A549/WI-38, A549/WI-26 VA4, H1975/WI-38, H1975/WI-26 VA4, H3122/WI-38 and H3122/WI-26 VA4) was calculated (Table-3). […] The average therapeutic index of DSePA and D-DSePA estimated from above study was 11.05±1.5 and 78.7±29.2 respectively (FIG. 10).
MTT Assay—To evaluate the anti-proliferative effect of D-DScPA and DScPA, Cells (˜5×10^3) suspended in 100 μl of complete culture medium were seeded in each well of 96 well plates. The cells were allowed to attach and grow for 24 h, treated with desired concentrations of D-DSePA/DScPA dissolved in culture medium for 48 h and then processed for MTT assay as described in literature. The percentage (%) cytotoxicity was calculated from the decrease in absorbance at 570 nm of treated groups as compared to that of control group. The % cytotoxicity was plotted as a function of the concentration of D-DSePA and DSePA and from this curve, the concentration of D-DSePA/DScPA causing 50% toxicity (IC50) was estimated. The therapeutic index was calculated by normalizing the IC50 concentration of D-DSePA/DSePA in non-cancerous cells to that in cancerous cells.

The values below come from patent US20240208901A1, “Deuterated 3,3'-Diselenodipropionic Acid (DSePA) and Its Use as an Anticancer or Radioprotective Agent” (Secretary, Department of Atomic Energy, priority 2022, published 2024).

SMILES strings stand for the structures.

On to `[2H]C([2H])([Se][Se]C([2H])([2H])C([2H])([2H])C(=O)O)C([2H])([2H])C(=O)O` [D-DSePA, 3,3′-diselenodipropionic acid-D8], for which the “dose modification factor (DMF, D10 of combinatorial treatment / D10 of radiation)” value in the assay on A549 cells (0.5 μM drug immediately after γ-radiation (2-8 Gy)) is on record as 0.83±0.02. Also, the “effect on radiation kill of lung cancer cells” value in the assay with A549 cells (0.5 μM with γ-radiation 2-8 Gy) is recorded as “did not protect lung cancer cells from radiation kill”. Moreover, the “D10 value (decimal reduction dose) of the combinatorial treatment” value in the assay on A549 cells (γ-radiation 2-8 Gy then 0.5 μM drug immediately, seven days, radiation alone D10 5 Gy) worked out at 4 Gy. Moreover, in assay [1], the “IC50 higher as compared to un-deuterated DSePA” value was 4 to 5 times. Besides, in the assay with WI-38 cells (WI-38 cells pretreated 24 h with 0.5 μM drug, clonogenic assay), the “dose modification factor (DMF, D10 of radiation plus drug / D10 of radiation alone)” value was 1.16±0.05. Besides, the “radioprotective activity in normal lung cells” value in the assay on WI-38 cells (WI-38 cells, 0.5 μM 24 h pre-treatment) was “exhibited radioprotective activity in normal lung cells”. Moreover, the “Therapeutic Index (IC50 in normal cell / IC50 in cancer cells)” value in assay [2] (A549/WI-26 VA4, MTT assay) is on record as 36.2 ± 1.9; in assay [2] (A549/WI-38, MTT assay) it was 65.7 ± 3.3; in assay [2] (H1975/WI-26 VA4, MTT assay), 119.6 ± 5.9; in assay [2] (H1975/WI-38, MTT assay), 217.4 ± 10.9; in assay [2] (H3122/WI-26 VA4, MTT assay) it was 11.8 ± 0.6; in assay [2] (H3122/WI-38, MTT assay) it was 21.5 ± 1.0. This compound came in with an average therapeutic index in assay [2] (mean of six normal/cancer cell pairs, mean±SEM (n=6), MTT assay) of 78.7±29.2. Also, the “higher therapeutic index as compared to un-deuterated DSePA” value in assay [2] (non-cancerous lung fibroblast versus NSCLC (A549, H1975 and H3122)) is recorded as ~7 folds.
